Assays:
[1] = tested on: GABAARs of isolated bipolar cells of rat retina; experiment: Whole-cell recording of isolated retinal bipolar cells; format: cell-based
From the text: Data obtained with trans-MPC088 indicated substantial GABAAR potentiating activity by trans-MPC088 (FIG. 61).

[2] = tested on: AMPAR/NMDAR-mediated EPSCs; experiment: AMPAR/NMDAR-mediated EPSCs in hippocampal CA1 pyramidal neurons; format: cell-based, mouse
Experimental: To test whether MPC088 affects excitatory synaptic transmission, whole-cell voltage-clamp recordings were carried out in CA1 pyramidal neurons of mouse hippocampus. As in the experiments of FIG. 42, these recordings were obtained with perfusion of the slice with cis-dominant MPC088 (30 μM) under recirculation. PTX […] was also included in the external solution to block GABAARs. EPSCs were evoked by stimulating the Schaffer collaterals with a bipolar matrix microelectrode (FHC, Inc., Bowdoin, Me.), and recorded at a holding potential of +40 mV to uncover the NMDA receptor (NMDAR) component of the EPSC. Paired electrical stimuli separated by 80 ms were also presented to assess possible effects of MPC088 on short-term plasticity. Each cell was […] 20 interleaved trials in which the cell was exposed to two 0.1-s UV pulses surrounding a 1-s period of either blue light or no light (FIG. 50). […] Each trace is the average of 10 traces with stimulus and shutter artifacts blanked for clarity. The black and grey asterisks indicate the time points, respectively, for the current measurements of the AMPAR- and NMDAR-mediated components. FIG. 50b depicts summary data including that shown in a. Plotted for the blue light and no blue light conditions are the average current amplitudes measured at the peak of the first EPSC (black bars), and just prior to the second stimulus (grey bars), as indicated by the asterisks in a.
To quantify the effects of MPC088 on AMPA receptors (AMPARs) and NMDARs, for the first EPSC of the pair, the peak current and the current just prior to the second stimulus were measured, which reflect AMPAR and NMDAR components, respectively, of the EPSC^41. […] Additionally, blue light had no significant effect on the decay of the compound current (average τ from single-exponential fitting to the decay of the second EPSC: Blue off, 131±11 ms; Blue on, 131±11 ms; p=0.89). There was also no significant effect of blue light on the paired-pulse ratio (PPR, measured as Peak(2nd EPSC)/Peak(1st EPSC): Blue off, 1.72±0.07; Blue on, 1.85±0.14; p=0.34).
Recordings from hippocampal CA1 pyramidal neurons were obtained from 17-23 day old animals. Briefly, the hippocampus was completely removed from the brain and then sliced in 300-μm sections. Prior to recording, a cut was made with a scalpel blade between CA1 and CA3 in order to completely sever all connections between the two; this was done in order to abolish polysynaptic activity due to antidromic activation of CA3 pyramidal cells. Recordings were carried out under voltage clamp with an internal solution containing (in mM): 130 CsCl, 10 HEPES, 1 CaCl2, 2 ATP, 0.2 GTP, 10 EGTA, and 5 QX-314 Br, and pH was adjusted to 7.3 with CsOH. All data from these experiments are presented as mean±SEM.

α1β3γ2 GABAAR = molecular target: T1, α1β3γ2 GABAAR (UniProt P28472+P62813); experiment: Two-electrode voltage clamp of α1β3γ2 GABAAR-expressing oocytes; format: cell-based; details: 1 μM trans-MPC088 with 1 μM GABA (~EC3)
T1 construct: expressed in transfected cells; host or cells: Xenopus oocytes
From the text: Propofol is known to modulate GABAA receptors that contain a β subunit. […] Data in each group was obtained from 4 oocytes. […] Aggregate concentration-response data was also obtained from α1β3γ2 (squares) and α4β3δ (circles) receptors with trans-dominant MPC088 alone (FIG. 37b). Data was similarly normalized to the saturating GABA response obtained from each oocyte. Results for α1β2γ2 GABAARs in a and b (triangles) were reproduced from those of FIGS. 35c and 36b, respectively.
(§1) The activity of trans-dominant MPC088 was also tested at receptors containing the β-subunit substitution N265M, a mutation that markedly reduces the action of propofol both in vitro and in vivo (Jurd et al. (2003); Siegwart et al. (2002)). […] For each receptor type, illustrated responses are representative data obtained from a single oocyte.

[3] = tested on: GABAARs of cerebellar PNs; experiment: Whole-cell voltage clamp of cerebellar Purkinje neurons in slices, GABA-evoked currents with UV/blue light; format: cell-based, mouse; details: 10 μM GABA + 30 μM MPC088 by pressure pipette
Experimental: To evaluate the efficacy of MPC088 in GABAAR-expressing cells in situ, whole-cell voltage-clamp experiments were conducted on Purkinje neurons (PNs) in parasagittal slices from mouse cerebellum (Häusser et al. (1997); Smith et al. (2003)) (FIG. 40). […] The cell was flashed with UV light (1 s, shuttered from a mercury arc lamp), then blue light (1 s, from a 470 nm LED), and then again with UV light (1 s). […] The magnitude of the UV-to-blue transition was calculated as (B-UV1)/UV1; that of the blue-to-UV transition was calculated as (UV2-B)/UV2. […] For the negative control experiments (i.e., those involving exposure to vehicle or propofol alone) in which no light-evoked current was detectable, current was measured for identical epochs at the terminations of the light pulses.
Experiments on cerebellar PNs employed acute slices obtained from cerebella of 16-30 day-old C57/BL6 mice (Charles River Laboratories). After induction of deep anesthesia with isoflurane, mice were decapitated, and the cerebellum vermis was removed and placed in an ice-cold cutting solution containing (in mM): 85 NaCl, 2.5 KCl, 0.5 CaCl2, 4 MgCl2, 1.25 NaH2PO4, 24 NaHCO3, 25 glucose, and 75 sucrose. A Leica VT1000 vibratome was used to cut 250 μm thick, sagittal slices from the cerebellar vermis. […]

α1β3(N265M)γ2 GABAARs = molecular target: T2, α1β3(N265M)γ2 GABAARs (UniProt P28472+P62813, N290M); experiment: Two-electrode voltage clamp of α1β3(N265M)γ2 GABAAR-expressing oocytes; format: cell-based; details: 1 μM trans-MPC088 with 3 μM GABA (~EC2)
T2 construct: expressed in transfected cells; host or cells: Xenopus oocytes
Experimental: as §1

[4] = molecular target: T3, α1β2γ2 GABAARs (rat α1, rat β2 and human γ2S) (UniProt P18507+P62813+P63138); experiment: Two-electrode voltage clamp of α1β2γ2 GABAAR-expressing Xenopus oocytes; format: cell-based; details: for rate constant 1/τ of UV-induced decrease in membrane current (de-potentiation): 3 μM GABA and 1 μM MPC088
T3 construct: expressed in transfected cells; host or cells: Xenopus laevis oocytes
From the text: Purple and gray bars indicate periods of presentation of UV light (purple) and high-intensity visible light (High-Vis) (gray), respectively. […] These amplitude determination conditions are denoted by numbers beneath the waveform in FIG. 35d.
In each of the MPC088 experiments, the cis-dominant form was generated by UV light during static bathing. […] Numbers beneath the waveform in FIG. 2(c) denote amplitude determination conditions for that experiment.
Oocytes expressing α1β2γ2 receptors (rat α1, rat β2 and human γ2S) were prepared and studied by two-electrode voltage-clamp recording^58 (holding potential: −70 mV; amplifier: GeneClamp500B; Axon Instruments, Foster City, Calif.). Unless otherwise indicated, oocytes were superfused with Ringer solution (physiological saline) at a rate of ˜1 mL/min. The experiments of FIGS. 35d-e, 36c-e and 47 involved periods of static bathing, i.e., halted superfusion. The γ2(A79C) subunit was prepared by site-directed mutagenesis. Oocyte electrophysiological experiments were carried out in room light. A UV light-emitting diode (peak wavelength: 365 nm; Hamamatsu Photonics, Japan) and a microscope illuminator (white light; Schott Fostec, Auburn, N.Y.) provided UV and visible stimulating light. As measured at the position of the oocyte, the intensity of the UV light at 365 nm was 220 μW/mm^2. At 440 nm, the nominal strength of the visible (white) light (referred to as high-intensity visible light) was 28 μW/mm^2, and that of the ambient room illumination was 0.045 μW/mm^2. In all experiments, low-intensity visible light from the microscope illuminator (3 μW/mm^2 at 440 nm) was present at all times except those involving high-intensity visible illumination. Electrophysiological data were obtained using Clampex 8.2 (Axon Instruments), analyzed using Clampfit 10.0 (Axon Instruments) and OriginPro7.5 (OriginLab, Northampton, Mass.). All statistical analysis employed a two-sample t-test.

response enhancement (α1β3γ2 GABAAR): 4.4±1.3 fold
response enhancement (α1β3(N265M)γ2 GABAARs): 2.9±0.8 fold
GABAAR potentiating and direct agonist activities relative to parent propofol [4]: more than an order of magnitude
rate constant 1/τ of UV-induced decrease in membrane current (de-potentiation) ([4]; 10-fold reduced UV intensity): 0.13 ± 0.02 s⁻¹
rate constant 1/τ of UV-induced decrease in membrane current (de-potentiation) ([4]; nominal UV intensity): 0.43 ± 0.09 s⁻¹
potentiation of the GABA response ([4]; co-applied 3 μM GABA, MPC088 1 μM, MPD021 10 or 100 μM, MPC100 10 μM): markedly potentiated the GABA response
lowest concentration at which direct activation response is clearly evident ([4]; compound alone, no GABA): 4 µM
potency in direct activation relative to propofol ([4]; concentrations required for peak current equal to 40% of the 100 μM GABA-alone response): ~25 fold
SMILES: CC(C)c1cc(CCCC(=O)NCc2ccc(/N=N/c3ccc(C(=O)NCCN)cc3)cc2)cc(C(C)C)c1O [MPC088, (E)-N-(2-Aminoethyl)-4-((4-((4-(4-hydroxy-3,5-diisopropylphenyl)butanamido)methyl)phenyl)diazenyl)benzamide]
potentiating factor (peak amplitude relative to the 10 μM GABA response) ([1]; 5 μM with 10 μM GABA and 100 μM TPMPA): 1.73±0.01
potentiating factor (peak amplitude relative to the 10 μM GABA response) ([1]; 15 μM with 10 μM GABA and 100 μM TPMPA): 3.26±0.42
actions on AMPAR-mediated and NMDAR-mediated EPSCs ([2]; 30 μM): negligible actions on AMPAR-mediated and NMDAR-mediated EPSCs
average τ of decay of the second EPSC ([2]; 30 μM MPC088, Blue off): 131 ± 11 ms
paired-pulse ratio (PPR) ([2]; 30 μM MPC088, Blue off): 1.72±0.07
average τ of decay of the second EPSC ([2]; 30 μM MPC088, Blue on): 131 ± 11 ms
paired-pulse ratio (PPR) ([2]; 30 μM MPC088, Blue on): 1.85±0.14
mean ratio of absolute current magnitude in response to blue→UV/UV→blue [3]: 1.00±0.01
maximum current of direct activation relative to the 100 μM GABA response ([4]; compound alone): comparable with the peak current elicited by 100 μM GABA
